Measurements as given in ChEMBL document CHEMBL1201862, “PubChem BioAssay data set” (2004).
The source made the active and inactive calls.

How the values were obtained:
[1] = target: T1, Type-1 angiotensin II receptor (Homo sapiens, UniProt P30556); assay: AT1 receptor agonists, dose response, selectivity assay for APJ receptor agonist project, cell-based, uHTS hits (AID 488865); assay type: functional;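 note: beta-arrestin recruitment to AT1 measured by enzyme fragment complementation luminescence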
T1 sequence (P30556 whole entry): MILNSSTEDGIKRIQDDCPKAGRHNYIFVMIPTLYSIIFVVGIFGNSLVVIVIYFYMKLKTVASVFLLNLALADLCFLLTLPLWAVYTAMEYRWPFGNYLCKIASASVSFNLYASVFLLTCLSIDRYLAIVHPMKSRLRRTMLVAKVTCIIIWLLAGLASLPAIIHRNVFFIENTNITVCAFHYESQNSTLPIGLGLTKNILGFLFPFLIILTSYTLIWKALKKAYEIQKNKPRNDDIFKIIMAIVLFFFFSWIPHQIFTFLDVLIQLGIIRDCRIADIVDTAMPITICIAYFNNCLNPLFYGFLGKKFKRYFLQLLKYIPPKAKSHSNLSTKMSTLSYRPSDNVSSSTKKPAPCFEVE

[2] = target: T2, DNA repair and recombination protein RAD54-like (Homo sapiens, UniProt Q92698); assay: inhibitors of human RAD54 branch migration, confirmation, biochemical, fluorescence, cherry-picked samples, dose series (AID 651657); assay type: functional
T2 sequence (Q92698 whole entry): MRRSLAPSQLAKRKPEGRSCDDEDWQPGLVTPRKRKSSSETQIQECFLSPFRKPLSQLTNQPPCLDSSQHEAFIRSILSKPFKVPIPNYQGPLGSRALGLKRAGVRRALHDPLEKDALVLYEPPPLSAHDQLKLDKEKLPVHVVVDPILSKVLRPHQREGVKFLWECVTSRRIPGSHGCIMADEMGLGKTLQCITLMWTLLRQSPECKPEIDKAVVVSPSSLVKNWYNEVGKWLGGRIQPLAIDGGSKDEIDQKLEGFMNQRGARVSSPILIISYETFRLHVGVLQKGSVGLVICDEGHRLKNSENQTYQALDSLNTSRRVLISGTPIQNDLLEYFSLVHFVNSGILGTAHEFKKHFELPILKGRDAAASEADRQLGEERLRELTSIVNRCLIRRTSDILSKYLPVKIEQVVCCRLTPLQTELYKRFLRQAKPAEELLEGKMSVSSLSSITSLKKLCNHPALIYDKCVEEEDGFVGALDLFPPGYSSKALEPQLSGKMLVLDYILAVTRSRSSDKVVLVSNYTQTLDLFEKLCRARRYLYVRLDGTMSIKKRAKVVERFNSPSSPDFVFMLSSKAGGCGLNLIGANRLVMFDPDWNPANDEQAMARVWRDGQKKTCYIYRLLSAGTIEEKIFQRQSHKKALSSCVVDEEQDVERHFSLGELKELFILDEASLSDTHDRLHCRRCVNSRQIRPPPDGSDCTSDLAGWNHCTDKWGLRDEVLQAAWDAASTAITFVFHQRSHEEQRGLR

[3] = target: Kallikrein-7 (Homo sapiens, UniProt P49862); assay: Fluorescence Intensity-based biochemical primary high throughput dose response assay to identify activators of kallikrein-7 (K7) zymogen.
[4] = target: T3, Protein RecA (Mycobacterium tuberculosis, UniProt P9WHJ3); assay: Fluorescence Cell-Free Homogeneous Dose Retest to Identify Inhibitors of RecA-Intein Splicing Activity. [Related pubchem assays (depositor defined):AID2097, AID2223, AID489010, AID492950]; assay type: functional
T3 sequence (P9WHJ3 whole entry): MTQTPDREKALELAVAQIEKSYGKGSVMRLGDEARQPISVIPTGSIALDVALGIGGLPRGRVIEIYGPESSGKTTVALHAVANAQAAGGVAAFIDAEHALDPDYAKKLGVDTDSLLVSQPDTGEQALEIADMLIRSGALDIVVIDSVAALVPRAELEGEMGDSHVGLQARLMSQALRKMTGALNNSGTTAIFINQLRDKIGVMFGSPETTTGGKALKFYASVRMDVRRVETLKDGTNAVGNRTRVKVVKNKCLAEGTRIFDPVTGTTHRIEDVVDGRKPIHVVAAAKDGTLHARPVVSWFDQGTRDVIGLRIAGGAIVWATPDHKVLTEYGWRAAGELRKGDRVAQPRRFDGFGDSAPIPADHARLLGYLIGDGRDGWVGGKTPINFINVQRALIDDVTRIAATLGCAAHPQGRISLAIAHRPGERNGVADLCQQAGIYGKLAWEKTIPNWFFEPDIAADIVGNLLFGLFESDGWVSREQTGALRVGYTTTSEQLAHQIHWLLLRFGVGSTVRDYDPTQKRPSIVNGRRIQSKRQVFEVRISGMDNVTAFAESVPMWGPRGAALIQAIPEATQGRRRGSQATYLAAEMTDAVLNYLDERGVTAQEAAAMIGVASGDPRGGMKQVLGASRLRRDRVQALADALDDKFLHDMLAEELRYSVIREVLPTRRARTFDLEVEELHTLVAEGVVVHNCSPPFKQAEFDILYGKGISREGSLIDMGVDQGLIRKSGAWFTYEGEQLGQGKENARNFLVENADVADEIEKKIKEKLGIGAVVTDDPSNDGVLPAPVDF

[5] = Intein inhibitors as potential Tuberculosis drugs, a cytotoxicity screen. [Related pubchem assays (depositor defined):AID2221, AID2223, AID434968, AID435010, AID449749, AID449750, AID489010]; assay type: functional
[6] = target: T4, Replicative DNA helicase DnaB (Mycobacterium tuberculosis, UniProt P9WMR3); assay: DnaB intein splicing inhibitors, dose response, biochemical, cell-free fluorescence (AID 449749); assay type: functional
T4 sequence (P9WMR3 whole entry): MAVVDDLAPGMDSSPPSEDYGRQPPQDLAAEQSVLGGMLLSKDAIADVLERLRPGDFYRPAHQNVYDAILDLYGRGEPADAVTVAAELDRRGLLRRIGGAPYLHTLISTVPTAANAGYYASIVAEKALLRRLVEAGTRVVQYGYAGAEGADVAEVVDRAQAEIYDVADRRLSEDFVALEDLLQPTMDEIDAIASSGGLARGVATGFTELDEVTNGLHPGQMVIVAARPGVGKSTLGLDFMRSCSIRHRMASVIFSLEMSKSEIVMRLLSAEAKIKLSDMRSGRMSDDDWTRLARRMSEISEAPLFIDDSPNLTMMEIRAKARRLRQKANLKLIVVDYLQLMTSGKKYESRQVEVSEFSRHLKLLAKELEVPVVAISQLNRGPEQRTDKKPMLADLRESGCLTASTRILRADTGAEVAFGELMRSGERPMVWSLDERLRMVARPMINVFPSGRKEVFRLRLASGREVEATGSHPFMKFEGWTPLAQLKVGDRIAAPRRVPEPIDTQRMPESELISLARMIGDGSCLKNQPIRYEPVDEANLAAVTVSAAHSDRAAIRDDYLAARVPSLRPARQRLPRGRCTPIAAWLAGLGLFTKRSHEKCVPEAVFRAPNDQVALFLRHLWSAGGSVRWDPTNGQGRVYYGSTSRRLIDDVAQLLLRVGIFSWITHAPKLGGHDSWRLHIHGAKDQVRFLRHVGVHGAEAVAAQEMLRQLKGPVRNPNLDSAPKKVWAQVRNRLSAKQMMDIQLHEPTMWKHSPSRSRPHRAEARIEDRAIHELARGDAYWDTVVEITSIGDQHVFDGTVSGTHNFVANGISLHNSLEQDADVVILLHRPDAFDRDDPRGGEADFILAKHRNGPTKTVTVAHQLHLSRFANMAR

[7] = target: T5, Galanin receptor type 3 (Homo sapiens, UniProt O60755); assay: Fluorescence-based cell-based primary high throughput dose response assay to identify antagonists of the Galanin Receptor 3 (GalR3).; assay type: functional
T5 sequence (O60755 whole entry): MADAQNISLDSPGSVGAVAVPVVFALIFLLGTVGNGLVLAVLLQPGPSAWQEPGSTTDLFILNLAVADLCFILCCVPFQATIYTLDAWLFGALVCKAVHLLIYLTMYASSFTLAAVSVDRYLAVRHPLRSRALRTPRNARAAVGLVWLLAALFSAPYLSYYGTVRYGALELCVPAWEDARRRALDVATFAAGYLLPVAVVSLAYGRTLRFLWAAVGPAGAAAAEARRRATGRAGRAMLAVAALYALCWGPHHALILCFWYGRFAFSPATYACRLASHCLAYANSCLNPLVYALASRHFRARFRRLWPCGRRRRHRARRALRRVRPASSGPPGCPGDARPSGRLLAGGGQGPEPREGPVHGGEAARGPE

[8] = target: T6, Leucine aminopeptidase (Plasmodium falciparum 3D7, UniProt Q8IL11); assay: P. falciparum M17LAP inhibitors, primary screen, biochemical, fluorogenic H-Leu-NHMec substrate, 1536-well (AID 1619); assay type: functional
T6 sequence (Q8IL11 whole entry): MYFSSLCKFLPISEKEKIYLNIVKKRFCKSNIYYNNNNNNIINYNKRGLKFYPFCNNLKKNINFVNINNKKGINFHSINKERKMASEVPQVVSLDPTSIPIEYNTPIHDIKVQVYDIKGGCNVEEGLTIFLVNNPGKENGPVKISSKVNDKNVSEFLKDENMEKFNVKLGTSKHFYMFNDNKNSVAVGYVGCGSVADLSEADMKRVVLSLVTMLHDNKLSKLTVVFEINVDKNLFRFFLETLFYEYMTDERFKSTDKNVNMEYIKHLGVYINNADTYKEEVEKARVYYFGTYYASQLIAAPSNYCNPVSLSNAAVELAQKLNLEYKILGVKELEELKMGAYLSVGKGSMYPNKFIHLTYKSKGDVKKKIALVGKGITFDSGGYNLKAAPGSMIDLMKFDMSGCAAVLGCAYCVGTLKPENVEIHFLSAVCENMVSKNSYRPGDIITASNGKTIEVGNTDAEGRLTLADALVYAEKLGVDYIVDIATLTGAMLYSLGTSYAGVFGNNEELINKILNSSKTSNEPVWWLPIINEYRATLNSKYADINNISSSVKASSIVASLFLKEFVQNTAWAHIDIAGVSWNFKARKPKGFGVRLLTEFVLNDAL

[9] = cells; assay type: functional, cell-based; conditions: HEK-CNG
[10] = test system: T-cell; assay: inhibitors of CD8+ T cell–vesicle binding, dose response, mouse 2C CD8+ T cells, flow cytometry (AID 485284); assay type: functional
[11] = cells; conditions: HEK293
[12] = target: T7, Ubiquitin-conjugating enzyme E2 N (Homo sapiens, UniProt P61088); assay type: functional
T7 sequence (P61088 whole entry): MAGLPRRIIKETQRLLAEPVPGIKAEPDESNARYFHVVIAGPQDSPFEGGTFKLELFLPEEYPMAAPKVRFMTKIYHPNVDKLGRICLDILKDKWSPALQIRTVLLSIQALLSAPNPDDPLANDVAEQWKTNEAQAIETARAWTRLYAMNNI

[13] = HepG2 cell cytotoxicity, dose response, cytotoxicity control, ATP luminescence, cherry-pick, set 6 (AID 1053125); assay type: functional, cell-based
[14] = cells; conditions: A549
[15] = target: T8, Bcl-2-related protein A1 (Mus musculus, UniProt Q07440); assay type: functional;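 note: confirmatory dose–response counterscreen on Bfl-1, used to check hits from a UBC13 polyubiquitin inhibitor campaign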
T8 sequence (Q07440 whole entry): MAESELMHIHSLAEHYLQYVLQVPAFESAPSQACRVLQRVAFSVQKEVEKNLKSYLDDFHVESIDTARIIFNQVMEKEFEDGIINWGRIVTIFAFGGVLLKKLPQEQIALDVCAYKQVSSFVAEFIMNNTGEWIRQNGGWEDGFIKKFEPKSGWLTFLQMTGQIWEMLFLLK

[16] = target: T7, Ubiquitin-conjugating enzyme E2 N; assay type: functional; remark: listed apart in the source
[17] = test system: Vibrio harveyi; assay: inhibitors of AI-2 quorum sensing in V. harveyi, dose response, LuxS, LuxPQ, dry powder, set 2 (AID 493072); assay type: functional, organism-based
[18] = target: T9, G-protein coupled receptor 35 (Homo sapiens, UniProt Q9HC97); assay: SAR analysis of Antagonists of the GPR35 Receptor using an Image-Based Assay - Set 6. [Related pubchem assays (depositor defined):AID2013, AID2026]; assay type: functional
[19] = target: G-protein coupled receptor 55 (Homo sapiens, UniProt Q9Y2T6); assay: SAR Analysis of Selective Antagonists of GPR55 using an Image-Based Assay - Set 4. [Related pubchem assays (depositor defined):AID2013, AID2026]; assay type: functional;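 note: antagonism of response to 5 µM lysophosphatidylinositol agonist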
[20] = target: T10, Cannabinoid receptor 1 (Homo sapiens, UniProt P21554); assay: SAR analysis of antagonists of the Cannabinoid Receptor 1 using an Image-Based Assay - Set 4. [Related pubchem assays (depositor defined):AID2013, AID2026]; assay type: functional
[21] = target: T10, Cannabinoid receptor 1; assay: SAR analysis of agonists of the Cannabinoid Receptor 1 using an Image-Based Assay - Set 4. [Related pubchem assays (depositor defined):AID2013, AID2026]; assay type: functional
[22] = target: T11, Cannabinoid receptor 2 (Homo sapiens, UniProt P34972); assay: SAR analysis of agonists of the Cannabinoid Receptor 2 using an Image-Based Assay - Set 3. [Related pubchem assays (depositor defined):AID2013, AID2026]; assay type: functional
[23] = target: T11, Cannabinoid receptor 2; assay: SAR analysis of antagonists of the Cannabinoid Receptor 2 using an Image-Based Assay - Set 3. [Related pubchem assays (depositor defined):AID2013, AID2026]; assay type: functional
[24] = target: T9, G-protein coupled receptor 35; assay: SAR analysis of Agonists of the GPR35 Receptor using an Image-Based Assay - Set 4. [Related pubchem assays (depositor defined):AID2013, AID2026]; assay type: functional
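Throughout, for CC50: cells exposed to compound for 72 hours before luminescence readout.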

T9 sequence (Q9HC97 whole entry): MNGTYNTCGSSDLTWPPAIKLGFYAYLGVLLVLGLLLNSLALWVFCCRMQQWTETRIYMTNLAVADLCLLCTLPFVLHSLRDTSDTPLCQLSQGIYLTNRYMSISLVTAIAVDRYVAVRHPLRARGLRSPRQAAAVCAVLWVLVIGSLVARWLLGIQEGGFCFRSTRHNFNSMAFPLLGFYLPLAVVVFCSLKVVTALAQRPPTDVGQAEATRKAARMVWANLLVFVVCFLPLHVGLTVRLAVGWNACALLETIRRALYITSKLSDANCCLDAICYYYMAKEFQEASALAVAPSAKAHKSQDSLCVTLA
T10 sequence (P21554 whole entry): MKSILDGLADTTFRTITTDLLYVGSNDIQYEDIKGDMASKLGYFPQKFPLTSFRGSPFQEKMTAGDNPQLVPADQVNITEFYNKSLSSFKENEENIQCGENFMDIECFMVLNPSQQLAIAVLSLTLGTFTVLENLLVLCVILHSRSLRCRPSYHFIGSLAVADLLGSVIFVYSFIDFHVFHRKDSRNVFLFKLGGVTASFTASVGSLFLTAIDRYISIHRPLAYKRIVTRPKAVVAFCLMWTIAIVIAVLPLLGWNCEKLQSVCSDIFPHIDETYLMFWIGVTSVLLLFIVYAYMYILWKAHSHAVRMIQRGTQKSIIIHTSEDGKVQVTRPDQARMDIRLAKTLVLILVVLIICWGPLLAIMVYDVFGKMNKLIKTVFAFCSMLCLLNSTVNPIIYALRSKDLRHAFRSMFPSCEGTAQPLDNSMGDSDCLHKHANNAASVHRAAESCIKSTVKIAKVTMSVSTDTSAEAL
T11 sequence (P34972 whole entry): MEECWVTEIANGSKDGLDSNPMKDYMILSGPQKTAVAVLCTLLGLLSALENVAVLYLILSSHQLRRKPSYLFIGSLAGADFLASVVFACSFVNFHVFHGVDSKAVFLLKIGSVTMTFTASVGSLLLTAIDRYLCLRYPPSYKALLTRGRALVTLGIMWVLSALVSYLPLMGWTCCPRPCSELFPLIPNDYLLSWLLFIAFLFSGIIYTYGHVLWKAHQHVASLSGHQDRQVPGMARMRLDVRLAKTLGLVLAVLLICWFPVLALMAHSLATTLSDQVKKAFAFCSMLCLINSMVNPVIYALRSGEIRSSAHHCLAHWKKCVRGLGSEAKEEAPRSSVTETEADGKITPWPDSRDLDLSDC
Chain of G-protein coupled receptor 55 (Q9Y2T6 whole entry): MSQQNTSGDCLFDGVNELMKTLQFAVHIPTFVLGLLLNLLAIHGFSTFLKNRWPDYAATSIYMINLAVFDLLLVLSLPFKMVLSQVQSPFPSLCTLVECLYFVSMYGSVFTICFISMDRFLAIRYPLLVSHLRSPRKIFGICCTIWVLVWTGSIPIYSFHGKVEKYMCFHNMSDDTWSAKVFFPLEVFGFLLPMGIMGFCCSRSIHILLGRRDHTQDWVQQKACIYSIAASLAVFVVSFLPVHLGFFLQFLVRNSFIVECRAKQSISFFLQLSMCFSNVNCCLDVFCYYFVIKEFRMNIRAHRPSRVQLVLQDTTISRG
Chain of Kallikrein-7 (P49862 whole entry): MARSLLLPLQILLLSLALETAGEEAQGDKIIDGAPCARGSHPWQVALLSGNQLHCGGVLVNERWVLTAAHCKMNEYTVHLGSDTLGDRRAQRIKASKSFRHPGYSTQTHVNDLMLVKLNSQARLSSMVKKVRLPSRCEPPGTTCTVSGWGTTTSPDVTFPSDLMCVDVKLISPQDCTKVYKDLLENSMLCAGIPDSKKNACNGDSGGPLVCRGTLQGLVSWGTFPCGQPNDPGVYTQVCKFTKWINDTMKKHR

For `COc1cccc2sc3cc(NCC[C@@H]4CCCN4C)ccc3c(=O)c12`, the EC50 [1] was > 100 µM (inactive), the AC50 [2] was 9.49 µM (active) and the EC50 [3] was > 69.5 µM (inactive).
With `N#CC(C#N)C(c1ccsc1)c1c(-c2ccccc2)n[nH]c1O` (centres undefined) the EC50 [4] was 0.468 µM (active), the CC50 [5] was > 40 µM (active) and the AC50 [6] was 2.85 µM (active). The IC50 [7] was > 29.9 µM (inactive), the IC50 [8] was 36.7 µM (active) and the EC50 [9] was 17.4 µM (inactive).
With `CC1CCCCC1NC(=O)COC(=O)c1ccc2ncsc2c1` (centres undefined) the EC50 [10] was 48.4 µM (inactive).
In the case of `CC(=O)NC(=S)NNC(=O)c1ccc(Br)cc1`, the AC50 [11] is reported as > 52 µM (inactive), the IC50 [12] is reported as 14.9 µM (active) and the AC50 [13] is reported as > 52 µM (inactive). The AC50 [14] was 46.3 µM (active), the IC50 [15] was > 20 µM (inactive) and the IC50 [16] was 17 µM (active).
With `Cc1cccc(NC(=O)c2ccc(Oc3ccccc3)cc2)n1` the AC50 [17] was 15.2 µM (active).
For `O=C(Nc1ccc(S(=O)(=O)Nc2nccs2)cc1)c1cc(-c2cccs2)nc2ccccc12`, the IC50 [18] was > 32 µM (inactive), the IC50 [19] was 29 µM (inactive) and the IC50 [20] was 4.09 µM (active). For the same compound, the EC50 [21] was > 32 µM (inactive), the EC50 [22] was > 32 µM (inactive) and the IC50 [23] was > 32 µM (inactive). For the same compound, the EC50 [24] was > 32 µM (inactive).
